This is an account of results in patent US8283291B2, “Herbicidal composition” (Kumiai Chemical Industry Co., Ltd., priority 2006, dated 2012).

In one data set the test system is corn (ZEAMX). Briefly: Test on herbicidal effects against weeds and phytotoxicity by foliage treatment in upland field. The format is in vivo. Conditions: 25 gai/ha, 21st day. The protocol: (§1) In a plastic pot of 11 cm in length×11 cm in width×11 cm in depth, the upland soil was filled, and seeds of corn (ZEAMX), soybean (GLXMA), greenfoxtail (SETVI), shattercane (SORVU), redroot pigweed (AMARE), Ipomoea lacunosa L. (IPOLA) and velvetleaf (ABUTH) were sown and covered with soil.
(§2) Then, cultivation was carried out in a greenhouse for 10 days. Then, a wettable powder prepared in accordance with Formulation Example 1 was weighed so that active ingredients would be the prescribed amounts, […] spray at a rate of 500 liter per 1 hectare. Thereafter, cultivation was carried out in a greenhouse, and on the 21st day after the treatment, the herbicidal effects and phytotoxicity were examined in accordance with the standards as identified in Table 15.

The test system of another data set is soybean (GLXMA). The description is as above. Format: in vivo. Particulars: 25 gai/ha, 21st day. How it is done: as §1, §2
In another data set the test system is shattercane (SORVU). The data set is described as above. Format: in vivo, Sorghum vulgare. Particulars: 25 gai/ha, 21st day. The protocol:
as §1
(§3) Then, cultivation was carried out in a greenhouse for 10 days. Then, a wettable powder prepared in accordance with Formulation Example 1 was weighed so that active ingredients would be the prescribed amounts, diluted with water and uniformly applied on the soil surface by means of a small size spray at a rate of 500 liter per 1 hectare. Thereafter, cultivation was carried out in a greenhouse, and on the 21st day after the treatment, the herbicidal effects and phytotoxicity were examined in accordance with the standards as identified in Table 15.

A further data set has as its system redroot pigweed (AMARE). The description is as above. The format is in vivo, Amaranthus retroflexus L. Conditions: 25 gai/ha, 21st day. The protocol:
as §1, §3

The subject of the next data set is greenfoxtail (SETVI). The description is as above. The format is in vivo, Setaria viridis. Particulars: 25 gai/ha, 21st day. The protocol:
as §1, §3

The test system of data set [1] is Ipomoea lacunosa L. (IPOLA). Described as above. Conditions: 25 gai/ha, 21st day. Format: in vivo. The protocol: as §1, §3
The test system of the next data set is velvetleaf (ABUTH). The data set is described as above. The format is in vivo, Abutilon theophrasti. Particulars: 25 gai/ha, 21st day. The protocol: as §1, §3
For another data set, the system named is italian ryegrass (LOLMU). The data set is described as follows: Test 4 on herbicidal effects against weeds and phytotoxicity by upland soil treatment. Format: in vivo. Particulars: 1000 gai/ha, 28th day. An excerpt: (§4) In a plastic pot of 14 cm in length×23 cm in width×8 cm in depth, upland soil was filled, and seeds of soybean (GLXMA), corn (ZEAMX), Ipomoea lacunosa L. (IPOLA) and velvetleaf (ABUTH) were sown and covered with soil. A wettable powder prepared in accordance with Formulation Example 1 was weighed so that the active ingredients became the prescribed amounts, diluted with water and uniformly applied to the soil surface by means of a small size spray at a rate of 500 liters per 1 hectare. Thereafter, cultivation was carried out in a greenhouse, and on the 28th day after the treatment, the herbicidal effects and phytotoxicity were examined in accordance with the standards as identified in Table 15.
(§5) The test on herbicidal effects and phytotoxicity against wheat (TRZAW), italian ryegrass (LOLMU), common chickweed (STEME) and common lambsquater (CHEAL) was carried out in the same manner as the above Test Example 1.

A further data set concerns wheat (TRZAW). Described as above. The format is in vivo. Conditions: 1000 gai/ha, 28th day.
Excerpt: as §4, §5

Another data set deals with common chickweed (STEME). The description is as above. The format is in vivo, Stellaria media. Particulars: 1000 gai/ha, 28th day.
Excerpt: as §4, §5

`COCc1cccc(C(O)c2nc(OC)cc(OC)n2)c1NS(=O)(=O)C(F)F` (stereo not shown) [Pyrimisulfan]: the “phytotoxicity ZEAMX” value with corn (ZEAMX) is 2 (Herbicidal effect or phytotoxicity of at least 20% and less than 30%). Besides, the “phytotoxicity GLXMA” value in the data set with soybean (GLXMA) was 2 (Herbicidal effect or phytotoxicity of at least 20% and less than 30%). The “herbicidal effect SORVU” value in the data set with shattercane (SORVU) was 8 (Herbicidal effect or phytotoxicity of at least 80% and less than 90%). For the same compound, in the data set on redroot pigweed (AMARE), the “herbicidal effect AMARE” value is 10 (Herbicidal effect or phytotoxicity of 100%). The “herbicidal effect SETVI” value with greenfoxtail (SETVI) is 6 (Herbicidal effect or phytotoxicity of at least 60% and less than 70%). In addition, the “herbicidal effect IPOLA” value in [1] is 9 (Herbicidal effect or phytotoxicity of at least 90% and less than 100%). In addition, in the data set with velvetleaf (ABUTH), the “herbicidal effect ABUTH” value is 10 (Herbicidal effect or phytotoxicity of 100%).
Turning to `CC(C)N(C(=O)SCC(Cl)=C(Cl)Cl)C(C)C` [Triallate], the “herbicidal effect LOLMU” value in the data set with italian ryegrass (LOLMU) is 2 (Herbicidal effect or phytotoxicity of at least 20% and less than 30%). In the data set on wheat (TRZAW), the “phytotoxicity TRZAW” value is 0 (Herbicidal effect or phytotoxicity of at least 0% and less than 10%). In addition, the “herbicidal effect STEME” value in the data set on common chickweed (STEME) was 2 (Herbicidal effect or phytotoxicity of at least 20% and less than 30%).
